Measurements reported in ChEMBL document CHEMBL1201862, “PubChem BioAssay data set” (2004).
Activity calls are given as the source filed them.

Assays:
Beta Lactamase = Beta Lactamase (Pseudomonas aeruginosa, UniProt Q932Y6); experiment: beta-lactamase reporter inhibitor potency, dose response, artefact control for TLR9-MyD88 binding inhibitor project, BLA reporter cells, FRET fluorescence (AID 588341); assay type: cell-based;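 note: cell based assay in CHO-K1 cells stably expressing beta-lactamase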
Beta Lactamase, sequence (Q932Y6 whole entry): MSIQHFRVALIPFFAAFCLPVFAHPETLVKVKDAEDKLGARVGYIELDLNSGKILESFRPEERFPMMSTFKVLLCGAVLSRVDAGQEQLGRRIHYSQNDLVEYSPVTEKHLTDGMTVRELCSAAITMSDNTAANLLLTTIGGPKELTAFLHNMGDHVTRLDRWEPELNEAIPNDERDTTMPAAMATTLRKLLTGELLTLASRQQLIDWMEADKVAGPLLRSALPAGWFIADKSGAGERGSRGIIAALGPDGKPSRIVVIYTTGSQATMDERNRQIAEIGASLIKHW

Protein skinhead-1 = biological target: T1, Protein skinhead-1 (Caenorhabditis elegans, UniProt P34707); assay type: functional
T1 sequence (P34707 whole entry): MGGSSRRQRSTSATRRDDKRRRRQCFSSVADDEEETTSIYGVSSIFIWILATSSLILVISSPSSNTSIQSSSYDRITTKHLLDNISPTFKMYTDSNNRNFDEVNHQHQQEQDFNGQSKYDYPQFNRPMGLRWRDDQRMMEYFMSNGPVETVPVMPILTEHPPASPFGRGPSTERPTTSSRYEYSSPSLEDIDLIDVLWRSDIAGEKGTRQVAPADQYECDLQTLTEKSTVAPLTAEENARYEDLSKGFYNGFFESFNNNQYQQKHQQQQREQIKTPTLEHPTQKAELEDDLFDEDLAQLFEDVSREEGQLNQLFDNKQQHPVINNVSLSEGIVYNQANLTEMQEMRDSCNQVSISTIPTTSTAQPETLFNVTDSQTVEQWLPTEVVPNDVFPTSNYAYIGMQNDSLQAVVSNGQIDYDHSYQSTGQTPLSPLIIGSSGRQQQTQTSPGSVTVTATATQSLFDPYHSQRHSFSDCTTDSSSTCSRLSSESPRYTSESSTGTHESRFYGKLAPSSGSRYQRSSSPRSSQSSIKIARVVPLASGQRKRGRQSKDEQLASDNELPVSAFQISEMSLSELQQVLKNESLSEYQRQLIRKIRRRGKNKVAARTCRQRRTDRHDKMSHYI

[1] = biological target: Voltage-dependent T-type calcium channel subunit alpha-1H (Homo sapiens, UniProt O95180); assay type: functional;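 note: channel activity triggered by adding a high calcium stimulation buffer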
Voltage-dependent T-type calcium channel subunit alpha-1H, sequence (O95180 whole entry, the tested form may be a part): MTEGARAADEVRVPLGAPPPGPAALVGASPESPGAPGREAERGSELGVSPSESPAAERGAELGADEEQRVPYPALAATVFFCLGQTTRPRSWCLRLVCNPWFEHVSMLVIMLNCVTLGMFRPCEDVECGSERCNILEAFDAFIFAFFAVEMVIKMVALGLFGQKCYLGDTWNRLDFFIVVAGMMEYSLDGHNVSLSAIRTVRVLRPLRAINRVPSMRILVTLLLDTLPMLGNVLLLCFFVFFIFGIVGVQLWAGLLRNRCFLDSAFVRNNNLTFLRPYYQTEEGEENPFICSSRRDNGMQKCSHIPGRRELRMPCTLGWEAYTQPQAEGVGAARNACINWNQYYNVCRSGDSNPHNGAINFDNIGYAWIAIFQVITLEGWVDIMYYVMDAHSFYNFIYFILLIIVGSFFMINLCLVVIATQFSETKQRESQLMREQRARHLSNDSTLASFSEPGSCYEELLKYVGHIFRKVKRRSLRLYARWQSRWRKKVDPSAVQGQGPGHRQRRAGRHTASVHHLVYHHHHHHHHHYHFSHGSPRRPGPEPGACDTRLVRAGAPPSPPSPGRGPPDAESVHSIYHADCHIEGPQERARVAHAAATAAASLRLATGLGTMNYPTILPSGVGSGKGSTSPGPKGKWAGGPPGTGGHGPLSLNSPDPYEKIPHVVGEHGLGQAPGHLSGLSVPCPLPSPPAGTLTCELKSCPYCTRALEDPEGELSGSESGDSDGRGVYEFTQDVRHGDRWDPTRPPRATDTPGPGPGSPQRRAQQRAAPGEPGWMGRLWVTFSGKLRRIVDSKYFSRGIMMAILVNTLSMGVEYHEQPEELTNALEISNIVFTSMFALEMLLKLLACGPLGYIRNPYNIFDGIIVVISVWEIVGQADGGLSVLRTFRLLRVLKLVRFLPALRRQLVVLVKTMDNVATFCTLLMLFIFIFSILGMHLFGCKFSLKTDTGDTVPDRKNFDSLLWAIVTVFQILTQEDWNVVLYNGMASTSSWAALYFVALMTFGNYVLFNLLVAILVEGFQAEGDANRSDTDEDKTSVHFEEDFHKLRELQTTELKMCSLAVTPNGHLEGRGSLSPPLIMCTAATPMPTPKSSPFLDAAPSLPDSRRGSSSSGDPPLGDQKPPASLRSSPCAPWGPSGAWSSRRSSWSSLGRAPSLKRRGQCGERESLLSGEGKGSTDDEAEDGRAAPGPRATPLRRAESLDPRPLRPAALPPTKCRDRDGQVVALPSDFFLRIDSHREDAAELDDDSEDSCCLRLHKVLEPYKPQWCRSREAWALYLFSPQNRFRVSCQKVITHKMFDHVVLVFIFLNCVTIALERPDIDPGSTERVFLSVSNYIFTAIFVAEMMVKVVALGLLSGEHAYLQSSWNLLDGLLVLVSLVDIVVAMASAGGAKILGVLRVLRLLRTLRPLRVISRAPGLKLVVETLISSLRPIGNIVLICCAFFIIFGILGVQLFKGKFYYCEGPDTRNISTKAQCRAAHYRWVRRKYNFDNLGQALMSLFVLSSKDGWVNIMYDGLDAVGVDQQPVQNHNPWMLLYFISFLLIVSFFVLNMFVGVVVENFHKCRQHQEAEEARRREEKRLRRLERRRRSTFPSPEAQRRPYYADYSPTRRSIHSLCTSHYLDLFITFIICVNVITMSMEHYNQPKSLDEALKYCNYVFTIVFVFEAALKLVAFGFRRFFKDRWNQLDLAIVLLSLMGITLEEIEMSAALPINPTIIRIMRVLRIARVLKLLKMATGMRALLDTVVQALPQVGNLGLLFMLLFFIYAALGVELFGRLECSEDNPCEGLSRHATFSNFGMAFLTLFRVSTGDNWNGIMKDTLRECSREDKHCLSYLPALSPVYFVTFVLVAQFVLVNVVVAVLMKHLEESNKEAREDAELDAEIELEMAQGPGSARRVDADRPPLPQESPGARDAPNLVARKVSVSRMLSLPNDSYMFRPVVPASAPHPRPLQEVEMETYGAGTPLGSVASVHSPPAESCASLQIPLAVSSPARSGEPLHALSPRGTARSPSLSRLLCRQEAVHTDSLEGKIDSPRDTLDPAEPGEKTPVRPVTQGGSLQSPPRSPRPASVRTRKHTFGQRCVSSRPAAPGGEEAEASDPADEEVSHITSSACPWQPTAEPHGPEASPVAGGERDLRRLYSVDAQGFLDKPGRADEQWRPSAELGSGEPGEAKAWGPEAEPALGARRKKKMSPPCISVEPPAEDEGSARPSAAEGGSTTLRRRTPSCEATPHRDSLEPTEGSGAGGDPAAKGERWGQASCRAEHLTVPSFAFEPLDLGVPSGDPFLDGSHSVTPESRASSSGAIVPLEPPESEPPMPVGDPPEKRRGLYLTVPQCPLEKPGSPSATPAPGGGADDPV

CHO = experiment: cytotoxicity in TLR9-MyD88 CHO cells, dose response, cytotoxicity control for TLR9-MyD88 binding inhibitor project, cell-based, luminescence (AID 588339); assay type: functional, hamster; conditions: Cricetulus griseus;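 note: CHO cells stably coexpressing TLR9 and MyD88 fusions from primary screen; compound exposure lasted 48 hours before viability readout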
[2] = biological target: T2, Low molecular weight phosphotyrosine protein phosphatase (Homo sapiens, UniProt P24666); assay type: functional; conditions: read-out: IC50_Mean
T2 sequence (P24666 whole entry): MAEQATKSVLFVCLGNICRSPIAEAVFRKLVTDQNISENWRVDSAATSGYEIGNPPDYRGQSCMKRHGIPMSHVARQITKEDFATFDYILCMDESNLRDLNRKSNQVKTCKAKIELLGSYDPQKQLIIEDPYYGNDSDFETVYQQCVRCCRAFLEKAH

[3] = biological target: T2, Low molecular weight phosphotyrosine protein phosphatase; assay type: functional; conditions: read-out: IC50_Mean; remark: listed apart in the source
[4] = miR-122 activators in hepatoma reporter cells, dose response, cell-based, Huh7 psiCHECK-miR122, Renilla luciferase, cherry-picked (AID 651956); assay type: functional;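 note: huh7 hepatoma cells stably carrying a psiCHECK-2 miR-122 sensor plasmid; renilla luciferase signal reporting endogenous miR-122 activity after 48 h compound exposure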
[5] = biological target: T3, Alkaline phosphatase, tissue-nonspecific isozyme (Homo sapiens, UniProt P05186); experiment: TNAP enzyme inhibition by screening hits, dose response, selectivity assay for mouse IAP inhibitor project, biochemical, human TNAP, uHTS hits (AID 488906); assay type: functional
T3 sequence (P05186 whole entry): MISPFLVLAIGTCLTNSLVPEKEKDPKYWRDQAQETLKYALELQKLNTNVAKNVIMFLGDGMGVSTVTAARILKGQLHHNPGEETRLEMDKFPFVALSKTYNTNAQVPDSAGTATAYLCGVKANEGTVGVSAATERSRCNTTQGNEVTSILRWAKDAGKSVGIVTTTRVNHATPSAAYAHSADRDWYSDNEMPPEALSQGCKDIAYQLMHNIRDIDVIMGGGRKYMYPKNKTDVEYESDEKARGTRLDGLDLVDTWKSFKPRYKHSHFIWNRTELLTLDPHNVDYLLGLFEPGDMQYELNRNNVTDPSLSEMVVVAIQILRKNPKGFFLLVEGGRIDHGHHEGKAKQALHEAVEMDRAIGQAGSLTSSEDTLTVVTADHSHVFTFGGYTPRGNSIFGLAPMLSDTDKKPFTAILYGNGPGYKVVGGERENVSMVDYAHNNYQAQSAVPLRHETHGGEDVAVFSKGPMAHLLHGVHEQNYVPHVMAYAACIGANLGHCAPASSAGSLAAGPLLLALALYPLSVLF

[6] = biological target: Intestinal-type alkaline phosphatase (Mus musculus, UniProt P24822); experiment: PubChem AID 488785; assay type: functional
[7] = control 3'UTR Renilla luciferase suppression, dose response, counter-screen for Shn3 inhibitor project, cell-based, Clone20-Shn3RL, cherry-picked (AID 624133); assay type: functional
[8] = biological target: Intestinal-type alkaline phosphatase (Homo sapiens, UniProt P09923); experiment: inhibition of human intestinal alkaline phosphatase – biochemical, dose response (AID 488876); assay type: functional
Caspase-6 = biological target: T4, Caspase-6 (Homo sapiens, UniProt P55212); experiment: human caspase-6 inhibitors, dose response, biochemical, VEID-R110 fluorescence, cherry-pick (AID 720632)
T4 sequence (P55212 whole entry): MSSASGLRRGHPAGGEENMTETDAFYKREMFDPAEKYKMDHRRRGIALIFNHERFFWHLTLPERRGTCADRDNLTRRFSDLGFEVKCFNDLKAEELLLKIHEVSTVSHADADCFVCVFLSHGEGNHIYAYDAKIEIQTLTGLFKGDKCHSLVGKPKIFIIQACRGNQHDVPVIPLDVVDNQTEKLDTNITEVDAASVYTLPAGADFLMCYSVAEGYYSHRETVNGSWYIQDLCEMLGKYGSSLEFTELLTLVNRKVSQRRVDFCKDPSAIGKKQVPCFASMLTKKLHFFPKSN

[9] = biological target: DNA (cytosine-5)-methyltransferase 1 (Homo sapiens, UniProt P26358); experiment: DNMT1 methyltransferase inhibitors, confirmation, biochemical, fluorescent molecular beacon (AID 602386); assay type: functional
DNA (cytosine-5)-methyltransferase 1, sequence (P26358 whole entry): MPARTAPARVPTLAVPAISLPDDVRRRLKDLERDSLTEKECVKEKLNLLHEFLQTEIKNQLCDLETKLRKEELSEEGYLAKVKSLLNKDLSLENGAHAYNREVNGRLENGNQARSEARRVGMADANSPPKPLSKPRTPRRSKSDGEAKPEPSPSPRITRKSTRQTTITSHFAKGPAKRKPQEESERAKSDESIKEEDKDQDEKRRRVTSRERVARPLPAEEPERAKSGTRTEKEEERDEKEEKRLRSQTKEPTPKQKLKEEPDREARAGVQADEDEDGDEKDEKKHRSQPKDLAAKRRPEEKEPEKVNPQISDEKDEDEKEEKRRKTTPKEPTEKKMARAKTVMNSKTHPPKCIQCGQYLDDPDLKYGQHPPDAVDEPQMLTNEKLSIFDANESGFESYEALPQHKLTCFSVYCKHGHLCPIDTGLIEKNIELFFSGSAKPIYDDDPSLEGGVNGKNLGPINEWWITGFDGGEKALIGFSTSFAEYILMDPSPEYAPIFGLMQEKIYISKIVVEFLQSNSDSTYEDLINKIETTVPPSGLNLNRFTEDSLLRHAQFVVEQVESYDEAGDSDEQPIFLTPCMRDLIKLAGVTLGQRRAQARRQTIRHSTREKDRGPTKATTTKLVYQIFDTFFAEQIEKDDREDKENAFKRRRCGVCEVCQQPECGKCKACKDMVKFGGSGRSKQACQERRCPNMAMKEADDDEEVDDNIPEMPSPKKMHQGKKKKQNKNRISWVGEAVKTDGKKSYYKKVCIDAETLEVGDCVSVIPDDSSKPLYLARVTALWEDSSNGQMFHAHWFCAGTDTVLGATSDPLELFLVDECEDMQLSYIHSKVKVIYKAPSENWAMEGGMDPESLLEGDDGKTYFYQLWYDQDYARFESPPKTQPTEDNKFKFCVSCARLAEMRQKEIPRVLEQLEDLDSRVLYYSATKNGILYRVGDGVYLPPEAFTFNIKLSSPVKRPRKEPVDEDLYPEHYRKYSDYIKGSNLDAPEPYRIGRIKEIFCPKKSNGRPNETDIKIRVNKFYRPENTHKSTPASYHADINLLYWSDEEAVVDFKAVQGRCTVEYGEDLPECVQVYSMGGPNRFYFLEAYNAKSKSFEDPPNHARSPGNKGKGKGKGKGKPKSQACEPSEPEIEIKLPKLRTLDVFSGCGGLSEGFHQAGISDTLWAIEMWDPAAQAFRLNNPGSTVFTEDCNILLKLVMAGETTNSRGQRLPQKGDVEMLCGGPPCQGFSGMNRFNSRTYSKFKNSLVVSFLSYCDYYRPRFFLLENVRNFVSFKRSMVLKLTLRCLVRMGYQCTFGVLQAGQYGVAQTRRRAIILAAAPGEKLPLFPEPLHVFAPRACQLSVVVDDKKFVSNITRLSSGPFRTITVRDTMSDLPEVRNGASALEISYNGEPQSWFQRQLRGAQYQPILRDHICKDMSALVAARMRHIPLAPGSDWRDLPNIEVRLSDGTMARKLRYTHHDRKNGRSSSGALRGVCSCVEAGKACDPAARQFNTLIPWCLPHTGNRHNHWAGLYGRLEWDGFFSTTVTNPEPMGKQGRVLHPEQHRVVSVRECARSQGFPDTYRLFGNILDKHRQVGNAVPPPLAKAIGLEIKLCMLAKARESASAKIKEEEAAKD

[10] = biological target: Mitochondrial peptide methionine sulfoxide reductase (Bos taurus, UniProt P54149); assay type: functional;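 note: absorbance read-out, biochemical high-throughput dose-response screen for MsrA inhibitors, confirmatory; recombinant bovine MsrA coupled to E. coli TrxB with NADPH and selenocystamine; potency is for inhibitors of MsrA activity on DMSO substrate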
[11] = cytotoxicity toward NIH3T3 fibroblasts, dose response, counter-screen, cell-based, ATP luminescence, mouse fibroblasts (AID 2010); assay type: functional;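 note: cells exposed to compound for about 90 hours before reading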
Melanocortin receptor 4 = Melanocortin receptor 4 (Homo sapiens, UniProt P32245); assay type: functional, cell-based;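 note: Cell-based assay with luminescence read-out, confirmatory dose-response testing for agonist activity of biased ligands at MC4R; human U2OS cells with tagged receptor and beta-arrestin; potency of agonists that increase receptor coupling to beta-arrestin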
[12] = inhibitors of intracellular T. cruzi replication, confirmation, NIH3T3 host cells, beta-gal luminescence (AID 2044); assay type: functional, cell-based;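 note: intracellular parasites grown in NIH/3T3 mouse fibroblasts as host cells; luminescent beta-galactosidase reporter signal from transgenic T. cruzi replicating inside host cells; inhibitors lower the luminescence signal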
Vero = experiment: West Nile virus antiviral activity, cell-based, CPE readout (AID 1621); assay type: functional; conditions: Chlorocebus sabaeus
[13] = biological target: Ras and Rab interactor 1/Tyrosine-protein kinase ABL1 (Homo sapiens, UniProt P00519+Q13671); assay type: functional;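 note: biochemical TR-FRET dose-response test measuring inhibition of binding between Rin1 and Abl proteins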
[14] = biological target: T5, Endoribonuclease toxin MazF (Escherichia coli K-12, UniProt P0AE70); experiment: MazF toxin RNase activators, dose response, biochemical, fluorescence, single-stranded RNA substrate, uHTS hits (AID 588481); assay type: functional
T5 sequence (P0AE70 whole entry): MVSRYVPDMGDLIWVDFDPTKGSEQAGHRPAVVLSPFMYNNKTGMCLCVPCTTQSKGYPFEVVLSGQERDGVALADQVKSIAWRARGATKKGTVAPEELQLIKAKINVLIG

[15] = biological target: T5, Endoribonuclease toxin MazF; experiment: fluorescent RNA oligo signal without MazF, dose response, counter-screen for MazEF activator project, biochemical, fluorescence, single-stranded RNase substrate (AID 588502); assay type: functional
Prothrombin = Prothrombin (Bos taurus, UniProt P00735); experiment: thrombin inhibition, dose response, biochemical, fluorescence polarization, uHTS hits (AID 602369); assay type: functional
[16] = biological target: 26S proteasome non-ATPase regulatory subunit 14 (Homo sapiens, UniProt O00487); experiment: inhibition of proteasome subunit RPN11 – biochemical, fluorescence polarization, uHTS hits, confirmation (AID 602368); assay type: functional
[17] = biological target: 72 kDa type IV collagenase (Homo sapiens, UniProt P08253); experiment: Dose Response validation of uHTS RPN11 inhibitor hits using a MMP-2 Fluorescence assay.; assay type: functional
72 kDa type IV collagenase, sequence (P08253 whole entry): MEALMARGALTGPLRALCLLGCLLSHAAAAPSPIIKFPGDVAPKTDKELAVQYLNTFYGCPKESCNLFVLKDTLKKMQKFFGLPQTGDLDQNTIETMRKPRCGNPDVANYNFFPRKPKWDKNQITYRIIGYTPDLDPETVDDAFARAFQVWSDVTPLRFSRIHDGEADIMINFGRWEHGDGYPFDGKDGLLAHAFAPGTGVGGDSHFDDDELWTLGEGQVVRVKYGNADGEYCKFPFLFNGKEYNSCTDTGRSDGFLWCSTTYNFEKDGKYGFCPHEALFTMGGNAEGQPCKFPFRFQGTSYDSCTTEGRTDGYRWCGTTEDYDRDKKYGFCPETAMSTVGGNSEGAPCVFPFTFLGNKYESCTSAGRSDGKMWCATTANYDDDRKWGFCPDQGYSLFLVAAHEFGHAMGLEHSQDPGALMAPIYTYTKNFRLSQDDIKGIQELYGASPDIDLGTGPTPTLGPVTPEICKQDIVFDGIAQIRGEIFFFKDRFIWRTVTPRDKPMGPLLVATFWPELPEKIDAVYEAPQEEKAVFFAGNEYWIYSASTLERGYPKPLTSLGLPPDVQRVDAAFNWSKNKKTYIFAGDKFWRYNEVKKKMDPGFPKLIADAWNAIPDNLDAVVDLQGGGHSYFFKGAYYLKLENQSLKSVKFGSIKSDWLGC

CCCN1C(=O)/C(=C/c2ccc(N3CCCC3)c(C)c2)NC1=S
IC50 (Beta Lactamase): 6.66 µM (active)
IC50 (Protein skinhead-1): > 100 µM (inactive)
EC50 [1]: 3.84 µM (active)
IC50 (CHO): 32.1 µM (inactive)

Clc1cccc(Cl)c1Cn1cnc(NCc2ccco2)c2ncnc1-2
IC50 [2]: 9.54 µM (active)
IC50 [3]: 4.06 µM (active)

CC(=O)Nc1ccc(S(=O)(=O)Nc2ccc(S(=O)(=O)Nc3nc(C)cc(C)n3)cc2)cc1
AC50 [4]: 19.7 µM (active)

COc1ccc(C(=O)OCC(=O)Nc2ncc([N+](=O)[O-])s2)cc1OC
IC50 [5]: 23.7 µM (active)
IC50 [6]: 8.79 µM (active)
AC50 [7]: 20.8 µM (active)
IC50 [8]: 72.6 µM (active)
AC50 (Caspase-6): 4.75 µM (active)
IC50 [9]: 4.45 µM (active)

S=C1NC2(CCCC2)Nc2ccccc21
IC50 [10]: 53.6 µM (inactive)

CCN1CCN(CCNC(=O)c2ccc(/C=C3\Sc4ccccc4N(Cc4ccccc4F)C3=O)cc2)CC1
EC50 [11]: > 60 µM (not active)
EC50 (Melanocortin receptor 4): > 89.2 µM (inactive)
EC50 [12]: 2.03 µM (active)
IC50 (Vero): 22.8 µM (active)

CCOc1ccc2nc(N(CCN(C)C)C(=O)c3cc4ccccc4cc3OC)sc2c1
IC50 (Protein skinhead-1): > 100 µM (inactive)
IC50 [13]: 52 µM (inactive)

CC(=O)C(=NNc1cc(C)ccc1O)C(C)=O
EC50 [14]: > 99 µM (inactive)
EC50 [15]: > 99 µM (inactive)

COc1cc(/C=C(\C#N)C(=O)Nc2cc(C(F)(F)F)ccc2Cl)ccc1OCC(=O)Nc1cccc(C(F)(F)F)c1
IC50 (Prothrombin): 40.2 µM (active)
IC50 [16]: 32.5 µM (active)
IC50 [17]: > 100 µM (inactive)

COc1cc(C(=O)Nc2ccc(S(=O)(=O)N3CCCCC3C)cc2)cc(OC)c1OC (stereo unspecified)
AC50 [4]: 19.8 µM (active)
